In PubChem BioAssay AID248 (DTP/NCI, 2004):
Values joined by “and” are separate entries in the source; they are usually repeats but may differ in a detail not shown here. Equal entries are not always repeated. Toxic doses and inconclusive results are not listed. Rule as the data show it: active = T/C of 150% or more; inactive = T/C below 125%.

Tested on: L1210 leukemia ip in BDF1 mice, survival T/C
Experiment: NCI In Vivo Anticancer Drug Screen. Data for tumor model L1210 Leukemia (intraperitoneal) in B6D2F1 (BDF1) mice
Conditions: endpoint: mean survival time, higher = longer survival
In short: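 In this screen, tumor-bearing mice given compound are compared to those given vehicle, and their survival values are reported as a treated-to-control quotient.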

[1] = dose: 50.0 mg/kg/injection, schedule: Q01DX009 (ip), vehicle: saline with Tween-80
[2] = dose: 100.0 mg/kg/injection, schedule: Q01DX009 (ip), vehicle: saline with Tween-80
[3] = dose: 200.0 mg/kg/injection, schedule: Q01DX009 (ip), vehicle: saline with Tween-80
[4] = dose: 100.0 mg/kg/injection, schedule: Q04DX003 (ip), vehicle: Klucel (hydroxypropylcellulose) (HPC)
[5] = dose: 200.0 mg/kg/injection, schedule: Q04DX003 (ip), vehicle: Klucel (hydroxypropylcellulose) (HPC)
[6] = dose: 400.0 mg/kg/injection, schedule: Q04DX003 (ip), vehicle: Klucel (hydroxypropylcellulose) (HPC)
[7] = dose: 50.0 mg/kg/injection, schedule: Q01DX001 (ip), vehicle: saline
[8] = dose: 100.0 mg/kg/injection, schedule: Q01DX001 (ip), vehicle: saline
[9] = dose: 200.0 mg/kg/injection, schedule: Q01DX001 (ip), vehicle: saline
[10] = dose: 400.0 mg/kg/injection, schedule: Q01DX001 (ip), vehicle: saline
[11] = dose: 100.0 mg/kg/injection, schedule: Q01DX001 (ip), vehicle: Klucel (hydroxypropylcellulose) (HPC)
[12] = dose: 200.0 mg/kg/injection, schedule: Q01DX001 (ip), vehicle: Klucel (hydroxypropylcellulose) (HPC)
[13] = dose: 400.0 mg/kg/injection, schedule: Q01DX001 (ip), vehicle: Klucel (hydroxypropylcellulose) (HPC)
[14] = dose: 100.0 mg/kg/injection, schedule: Q04DX002 (ip), vehicle: Klucel (hydroxypropylcellulose) (HPC)
[15] = dose: 200.0 mg/kg/injection, schedule: Q04DX002 (ip), vehicle: Klucel (hydroxypropylcellulose) (HPC)
[16] = dose: 400.0 mg/kg/injection, schedule: Q04DX002 (ip), vehicle: Klucel (hydroxypropylcellulose) (HPC)
[17] = dose: 100.0 mg/kg/injection, schedule: Q04DX003 (ip), vehicle: saline with Tween-80
[18] = dose: 200.0 mg/kg/injection, schedule: Q04DX003 (ip), vehicle: saline with Tween-80
[19] = dose: 100.0 mg/kg/injection, schedule: Q04DX002 (ip), vehicle: saline
[20] = dose: 200.0 mg/kg/injection, schedule: Q04DX002 (ip), vehicle: saline
[21] = dose: 400.0 mg/kg/injection, schedule: Q04DX002 (ip), vehicle: saline

Measured: T/C

Cc1cccc(C)c1NC(=O)C(Cl)Cl
inactive: dose: 50.0 mg/kg/injection, schedule: Q01DX Z (ip), vehicle: methylcellulose (MC) 109 % of control | dose: 73.0 mg/kg/injection, schedule: Q01DX Z (ip), vehicle: methylcellulose (MC) 107 % of control | dose: 112.0 mg/kg/injection, schedule: Q01DX Z (ip), vehicle: methylcellulose (MC) 101 % of control | dose: 168.0 mg/kg/injection, schedule: Q01DX Z (ip), vehicle: methylcellulose (MC) 101 % of control

Cn1c2nc(=O)n(-c3ccccc3)c(=O)c-2nc2c1CCCC2
inactive: dose: 6.25 mg/kg/injection, schedule: Q01DX009 (ip), vehicle: saline with Tween-80 110 % of control | dose: 12.5 mg/kg/injection, schedule: Q01DX009 (ip), vehicle: saline with Tween-80 106 % of control | dose: 25.0 mg/kg/injection, schedule: Q01DX009 (ip), vehicle: saline with Tween-80 101 % of control | [1] 103 % of control | [2] 105 % of control | [3] 100 % of control

CCOC(=O)Cc1ccc2c(c1)sc(=S)n2C
inactive: [4] 96 % of control | [5] 87 % of control | [6] 92 % of control

N=C(N)SCCON1C(=O)c2ccccc2C1=O
inactive: [7] 102 % of control | [8] 108 % of control | [9] 112 % of control

O=C(O)c1cccnc1C(=O)Nc1cccc2ccccc12
inactive: dose: 100.0 mg/kg/injection, schedule: Q04DX002 (ip), vehicle: saline with Tween-80 105 % of control | dose: 200.0 mg/kg/injection, schedule: Q04DX002 (ip), vehicle: saline with Tween-80 105 % of control | dose: 400.0 mg/kg/injection, schedule: Q04DX002 (ip), vehicle: saline with Tween-80 105 % of control

CCCCCCCCCCCC[Si](Cl)(Cl)Cl
inactive: dose: 75.0 mg/kg/injection, schedule: Q01DX001 (ip), vehicle: saline 105 % of control

CC1(C)CC(=O)C(c2ccccc2[N+](=O)[O-])=C(O)C1
inactive: [7] 102 % of control | [8] 105 % of control | [9] 90 % of control | [10] 94 % of control

CCOC(=O)C1Oc2ccc(Cl)cc2C1=O (centres undefined)
inactive: dose: 100.0 mg/kg/injection, schedule: Q04DX002 (ip), vehicle: gum acacia 97 % of control | dose: 200.0 mg/kg/injection, schedule: Q04DX002 (ip), vehicle: gum acacia 97 % of control | dose: 400.0 mg/kg/injection, schedule: Q04DX002 (ip), vehicle: gum acacia 101 % of control

O=c1ccncn1Cc1ccccc1
inactive: [11] 100 % of control | [12] 97 % of control | [13] 91 % of control

Cc1ccc(NC(=O)c2ccco2)cc1Cl
inactive: [11] 93 % of control | [14] 102 % of control | [12] 89 % of control | [15] 118 % of control | [13] 105 % of control | [16] 123 % of control

N=c1ccn(O)cc1[N+](=O)[O-]
inactive: [8] 108 % of control | [9] 120 % of control | [10] 114 % of control

Nc1nnnn1-c1cccc(Cl)c1
inactive: [17] 96 % of control | [18] 96 % of control | dose: 400.0 mg/kg/injection, schedule: Q04DX003 (ip), vehicle: saline with Tween-80 94 % of control

C=CCc1c[nH]c(=S)[nH]c1=O.[Hg]
inactive: dose: 3.12 mg/kg/injection, schedule: Q01DX001 (ip), vehicle: Klucel (hydroxypropylcellulose) (HPC) 98 % of control | dose: 6.0 mg/kg/injection, schedule: Q01DX009 (ip), vehicle: Klucel (hydroxypropylcellulose) (HPC) 98 % of control | dose: 6.0 mg/kg/injection, schedule: Q04DX003 (ip), vehicle: Klucel (hydroxypropylcellulose) (HPC) 97 % of control | dose: 6.25 mg/kg/injection, schedule: Q01DX001 (ip), vehicle: Klucel (hydroxypropylcellulose) (HPC) 98 % of control | dose: 12.0 mg/kg/injection, schedule: Q01DX009 (ip), vehicle: Klucel (hydroxypropylcellulose) (HPC) 94 % of control | dose: 12.0 mg/kg/injection, schedule: Q04DX003 (ip), vehicle: Klucel (hydroxypropylcellulose) (HPC) 100 % of control | dose: 12.5 mg/kg/injection, schedule: Q01DX001 (ip), vehicle: Klucel (hydroxypropylcellulose) (HPC) 93 % of control and 96 % of control | dose: 50.0 mg/kg/injection, schedule: Q01DX001 (ip), vehicle: Klucel (hydroxypropylcellulose) (HPC) 93 % of control

COC(=O)C1OCOC2C(CO)OCOC12 (centres undefined)
inactive: [19] 91 % of control | [17] 91 % of control | [20] 117 % of control | [18] 86 % of control | [21] 106 % of control

COc1cc(CC(=O)NO)cc(OC)c1OC
inactive: dose: 50.0 mg/kg/injection, schedule: Q01DX005 (ip), vehicle: saline with Tween-80 93 % of control | [1] 100 % of control | dose: 100.0 mg/kg/injection, schedule: Q01DX005 (ip), vehicle: saline with Tween-80 110 % of control | [2] 96 % of control | dose: 200.0 mg/kg/injection, schedule: Q01DX005 (ip), vehicle: saline with Tween-80 93 % of control | [3] 100 % of control

COc1cccc(-c2cc3c(OC)ccc(OC)c3[nH]2)c1
inactive: [14] 99 % of control | [15] 89 % of control | [16] 99 % of control

N#C/C(=C\c1ccccc1Cl)c1cccc(Cl)c1
inactive: dose: 25.0 mg/kg/injection, schedule: Q01DX009 (ip), vehicle: other 107 % of control | dose: 50.0 mg/kg/injection, schedule: Q01DX009 (ip), vehicle: other 96 % of control | dose: 100.0 mg/kg/injection, schedule: Q01DX009 (ip), vehicle: other 93 % of control and 90 % of control

CCCCCC(/C=N/N=C(N)N)=N\N=C(N)N
inactive: dose: 15.0 mg/kg/injection, schedule: Q01DX Z (ip), vehicle: carboxymethylcellulose (CMC) 98 % of control | dose: 30.0 mg/kg/injection, schedule: Q01DX Z (ip), vehicle: carboxymethylcellulose (CMC) 97 % of control | dose: 30.0 mg/kg/injection, schedule: Q01DX Z (oral), vehicle: carboxymethylcellulose (CMC) 98 % of control | dose: 60.0 mg/kg/injection, schedule: Q01DX Z (ip), vehicle: carboxymethylcellulose (CMC) 95 % of control | dose: 60.0 mg/kg/injection, schedule: Q01DX Z (oral), vehicle: carboxymethylcellulose (CMC) 87 % of control | dose: 120.0 mg/kg/injection, schedule: Q01DX Z (oral), vehicle: carboxymethylcellulose (CMC) 91 % of control | dose: 240.0 mg/kg/injection, schedule: Q01DX Z (oral), vehicle: carboxymethylcellulose (CMC) 95 % of control

CN1N=C(c2ccccc2)CC1=O
inactive: [11] 103 % of control | [12] 108 % of control | [13] 97 % of control

C1OCC2OC12 (centres undefined)
inactive: dose: 100.0 mg/kg/injection, schedule: Q01DX009 (ip), vehicle: saline 97 % of control and 88 % of control | [19] 97 % of control and 102 % of control | dose: 100.0 mg/kg/injection, schedule: Q04DX003 (ip), vehicle: saline 101 % of control | dose: 200.0 mg/kg/injection, schedule: Q01DX009 (ip), vehicle: saline 100 % of control and 87 % of control | [20] 100 % of control and 101 % of control | dose: 200.0 mg/kg/injection, schedule: Q04DX003 (ip), vehicle: saline 109 % of control | dose: 400.0 mg/kg/injection, schedule: Q01DX009 (ip), vehicle: saline 105 % of control and 87 % of control | [21] 104 % of control and 111 % of control | dose: 400.0 mg/kg/injection, schedule: Q04DX003 (ip), vehicle: saline 101 % of control

Cn1cnc([N+](=O)[O-])c1[Se]c1ncnc2nc[nH]c12
inactive: dose: 12.5 mg/kg/injection, schedule: Q01DX005 (ip), vehicle: other 89 % of control | dose: 50.0 mg/kg/injection, schedule: Q01DX005 (ip), vehicle: other 87 % of control

CC(=O)Nc1ccc(S(=O)(=O)F)cc1[N+](=O)[O-]
inactive: dose: 100.0 mg/kg/injection, schedule: Q01DX009 (ip), vehicle: saline sonified 93 % of control | [4] 97 % of control | dose: 200.0 mg/kg/injection, schedule: Q01DX009 (ip), vehicle: saline sonified 114 % of control | [5] 93 % of control | dose: 400.0 mg/kg/injection, schedule: Q01DX009 (ip), vehicle: saline sonified 101 % of control | [6] 93 % of control
